Source: patent US20190224222A1, “METHOD OF INHIBITING QUORUM SENSING USING D-GALACTOSE” (Seoul National University R&DB Foundation, priority 2014, published 2019)

Columns and labels:
[1] = test system: F. nucleatum (Fn) biofilm; test: Fn biofilm formation induced by Fn AI-2, crystal violet staining; format: cell-based, F. nucleatum (ATCC 25586); details: Fn + Fn AI-2 10% (v/v), 48-72 h, Fn/AI-2 control 1.5, Fn 0.46
Procedure: To test biofilm formation by Fn, a Fn culture broth (2 ml; a negative control group, the number of bacteria: 2×10^7/ml), a mixture of Fn culture broth (2 ml) and F. nucleatum AI-2 (purified from F. nucleatum secretary material of F. nucleatum culture broth using a C18 Sep-Pak reverse-phase column (Waters Co., Milford, Mass.); hereinafter, referred to as ‘Fn AI-2’; 10% (v/v) with respect to the total volume of the mixture with Fn culture broth), or a mixture of Fn culture broth (2 ml) and Fn AI-2 (10% (v/v) with respect to the total volume of the mixture with Fn culture broth) and each of QSI candidates was added to a 24-well plate with a glass slip (round, 12 mm radius), and cultured under anaerobic conditions for 48-72 hours. As the QSI candidates, sugars (D-rib, D-gal, D-Glu, D-Man, or D-ara) were used in an amount of 2 mM, and the furanone compound [(5Z)-4-bromo-5-(bromomethylene)-2(5H)-furanone] was used in an amount of 2 μM.
(§1) Biofilms formed on the cover slips were stained with 10% crystal violet [Tris(4-(dimethylamino)phenyl)methylium chloride] for 10 minutes, washed three times with PBS, and destained with 1 ml of acetone-alcohol (20:80, vol/vol). The optical density at 590 nm of the destaining solution containing crystal violet was measured using a microplate reader (a Wallac Victor3 microtiter, PerkinElmer Life Sciences, Waltham, Mass.). The smaller optical density (OD590) measured at 590 nm represents more inhibition of biofilm formation, that is, higher quorum sensing inhibitory effect of the used QSI candidate.

S. mutans (Sm) biofilm = test: S. mutans biofilm formation, crystal violet staining; format: cell-based, Streptococcus mutans (ATCC 25175)
Procedure: (§2) 2 mL (2×10^7/ml) of the culture broth of a representative cariogenic bacterium S. mutans (Sm) and 2 mL (2×10^7/ml) of the culture broth of one of normal oral flora, S. oxalis (SO) were added to a saliva-coated glass slip (round, 12 mm radius), respectively and cultured with 0 mM or 2 mM of D-galactose to form biofilms. The formed biofilms were stained with crystal violet in the same manner as in Examples 3-6 to test biofilm formation according to the presence of D-galactose. Further, the biofilms were stained with fluorescent materials using the live/dead-BacLight viability kit (Invitrogen, Grand Island, N.Y., USA), followed by analysis. For comparison, 2 μM of the furanone compound was used instead of D-galactose to perform the same test.

[2] = test system: P. gingivalis (Pg) biofilm; test: Pg biofilm formation induced by Fn secretory material, transwell, crystal violet; format: cell-based; details: Fn upper / Pg lower chamber, Fur 2 μM, 48-72 h, Fn/Pg control 0.57, Pg alone 0.30
Procedure: (§3) In order to examine efficacies of quorum sensing inhibitor (QSI) candidates on biofilm formation of periodontopathogenic bacteria which is induced by a secretory material of F. nucleatum (Fn), a test was performed using a transwell system. AI-2 naturally secreted by Fn is contained in the secretory material of Fn. Therefore, in the test using the transwell system, Fn AI-2 was not directly added to bacteria, but Fn was put in an upper chamber and Pg or Tf was put in a lower chamber. Biofilms cultured and formed in the presence or absence of QSI candidates were stained with crystal violet, followed by analysis. These conditions are to evaluate whether Pg or Tf biofilm formation is influenced by not a purified AI-2 but an AI-2-containing secretory material naturally secreted by Fn, and whether QSI candidates such as D-gal is able to inhibit the biofilm formation if the biofilm is then formed.
(§4) More specifically, the transwell system (24-well) has an upper chamber and a lower chamber which are separated from each other by a membrane of 0.4 μm. 500 μl of F. nucelatum (Fn) culture broth (the number of bacteria: 2×10^7 CFU/ml) was cultured in the upper chamber. A glass slip was placed in the lower chamber, and then the same number of P. gingivalis(Pg) or T. forsythia(Tf) was inoculated in 1 ml of medium and cultured for 48-72 hours. The same QSI candidates were added to the upper and lower chambers. As the QSI candidates, 2 mM of sugar (D-rib or D-gal) was used and 2 μM of the furanone compound [(5Z)-4-bromo-5-(bromomethylene)-2(5H)-furanone] was used. In order to examine whether biofilm formation of the bacteria in the lower chamber is influenced by Fn secretory material and QSI candidates, the biofilms formed on the glass slip were stained with crystal violet, and then quantified (see Examples 3 to 5).

S. oxalis (So) biofilm = test: S. oxalis biofilm formation, crystal violet staining; format: cell-based, Streptococcus oxalis (ATCC 9811); details: So on saliva-coated glass slip, Fur 2 uM; So control 0.59
Procedure: as §2, with “The formed biofilms were stained with crystal violet in the same manner as in Examples 3-6 to test biofilm formation according to the presence of D-galactose.” left out

[3] = test system: P. gingivalis (Pg) biofilm; test: Pg biofilm formation induced by Fn AI-2, crystal violet staining; format: cell-based, P. gingivalis (ATCC 33277); details: Pg + Fn AI-2 10% (v/v), Fur 2 μM, 48-72 h; Pg/AI-2 control 2.00, Pg 0.66
Procedure: To test biofilm formation by Pg, a test was performed in the same manner as in Example 3. That is, a Pg culture broth (2 ml; negative control group, the number of bacteria: 4×10^8/ml), a mixture of Pg culture broth (2 ml) and Fn AI-2 (10% (v/v) with respect to the total volume of the mixture with Pg culture broth), or a mixture of Pg culture broth (2 ml) and Fn AI-2 (10% (v/v) with respect to the total volume of the mixture with Fn culture broth) and D-gal (2 mM) was added to a 24-well plate with a glass slip (round, 12 mm radius), and cultured under anaerobic conditions for 48˜72 hours. For comparison, 2 μM of the furanone compound [(5Z)-4-bromo-5-(bromomethylene)-2(5H)-furanone] was used instead of D-gal (2 mM) to perform the same test.
as §1

[4] = test system: T. forsythia (Tf) biofilm; test: Tf biofilm formation induced by Fn AI-2, crystal violet staining; format: cell-based, T. forsythia (ATCC 43037); details: Tf + Fn AI-2 10% (v/v), Fur 2 μM, 48-72 h; Tf/AI-2 control 0.48, Tf 0.32
Procedure: To test biofilm formation by Tf, a test was performed in the same manner as in Example 3. That is, a Tf culture broth (2 ml; a negative control group, the number of bacteria: 2×10^8/ml), a mixture of Tf culture broth (2 ml) and Fn AI-2 (10% (v/v) with respect to the total volume of the mixture with Tf culture broth), or a mixture of Tf culture broth (2 ml) and Fn AI-2 (10% (v/v) with respect to the total volume of the mixture with Tf culture broth) and D-gal (2 mM) was added to a 24-well plate with a glass slip (round, 12 mm radius), and cultured under anaerobic conditions for 48-72 hours. For comparison, 2 mM of D-rib or 2 μM of the furanone compound [(5Z)-4-bromo-5-(bromomethylene)-2(5H)-furanone] was used instead of D-gal to perform the same test.
as §1

[5] = test system: T. forsythia (Tf) biofilm; test: Tf biofilm formation induced by Fn secretory material, transwell, crystal violet; format: cell-based; details: Fn upper / Tf lower chamber, Fur 2 μM, 48-72 h, Fn/Tf control 0.55, Tf alone 0.17
Procedure: as §3, §4

[6] = sugar 2 mM, smaller OD = more inhibition of biofilm

## O=C[C@H](O)[C@@H](O)[C@H](O)[C@H](O)CO [D-glu, D-glucose]
[1]; [6]
  OD590 nm: 1.15

## O=C1C=C(Br)/C(=C/Br)O1 [Fur, (5Z)-4-bromo-5-(bromomethylene)-2(5H)-furanone, reference compound]
S. mutans (Sm) biofilm; Sm on saliva-coated glass slip, Fur 2 μM, Sm control 0.48
  OD590 nm: 0.51
S. mutans (Sm) biofilm; crystal violet, D-gal 2 mM, furanone compound 2 μM
  inhibitory effect on Sm biofilm formation, in words: hardly exhibited the inhibitory effect
[2]
  OD590 nm: 0.30
S. oxalis (So) biofilm
  OD590: 0.64
[3]
  OD590 nm: 0.98
[4]
  OD590 nm: 0.35
[5]
  OD590: 0.39
[1]; Fur 2 μM
  OD590 nm: 0.49

## O=C[C@@H](O)[C@@H](O)[C@H](O)[C@H](O)CO [D-man, D-mannose]
[1]; [6]
  OD590 nm: 1.16

## O=C[C@@H](O)[C@H](O)[C@H](O)CO [D-ara, D-arabinose]
[1]; [6]
  OD590 nm: 1.37
